# Data reported in ChEMBL document CHEMBL1201862, “PubChem BioAssay data set” (2004).
#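 Results reflect a 48-hour exposure of cells in 96-well plates to compound at five concentrations. GI50 is the concentration that inhibits growth by half.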 The source made the active and inactive calls. No stated cut-off is given here; in the data, active = GI50 up to about 1.1 µM and inactive = higher.
# Tests used:
# Assay in all cases: inhibition of tumour cell growth, NCI panel, 48 h
# [1] = test system: HCC 2998
# [2] = test system: HCT-15
# [3] = test system: HL-60
# [4] = test system: KM12
# [5] = test system: M14
# [6] = test system: MCF7
# [7] = test system: MOLT-4
# [8] = test system: Malme-3M
# [9] = test system: NCI-H23
# [10] = test system: OVCAR-3
# [11] = test system: OVCAR-4
# [12] = test system: OVCAR-8
# [13] = test system: SF-295
# [14] = test system: SK-MEL-5
# [15] = test system: SK-OV-3
# [16] = test system: SR
# [17] = test system: UACC-257
# [18] = test system: ACHN
# [19] = test system: EKVX
# [20] = test system: SF-539
SMILES,GI50 [1],GI50 [2],GI50 [3],GI50 [4],GI50 [5],GI50 [6],GI50 [7],GI50 [8],GI50 [9],GI50 [10],GI50 [11],GI50 [12],GI50 [13],GI50 [14],GI50 [15],GI50 [16],GI50 [17],GI50 [18],GI50 [19],GI50 [20]
O=c1ccn(COC(COCc2ccccc2)COCc2ccccc2)c(=O)[nH]1,> 100 µM (inactive),> 100 µM,85.7 µM (inactive),> 100 µM (inactive),> 100 µM (inactive),> 100 µM (inactive),24.2 µM (inactive),> 100 µM (inactive),> 100 µM (inactive),> 100 µM (inactive),> 100 µM (inactive),> 100 µM (inactive),> 100 µM (inactive),76.4 µM (inactive),> 100 µM (inactive),62.8 µM (inactive),> 100 µM (inactive),,,
O=C(O)C1CCCCN1c1ccccc1[N+](=O)[O-] (stereo unspecified),> 100 µM (inactive),> 100 µM,> 100 µM (inactive),,> 100 µM (inactive),,> 100 µM (inactive),> 100 µM (inactive),> 100 µM (inactive),> 100 µM (inactive),> 100 µM (inactive),> 100 µM (inactive),> 100 µM (inactive),> 100 µM (inactive),> 100 µM (inactive),> 100 µM (inactive),> 100 µM (inactive),> 100 µM (inactive),> 100 µM (inactive),> 100 µM (inactive)
C[C@H]1C(=O)O[C@@H]1[C@H]1COC(C)(C)O1,> 100 µM (inactive),> 100 µM,0.769 µM (active),> 100 µM (inactive),> 100 µM (inactive),> 100 µM (inactive),> 100 µM (inactive),,> 100 µM (inactive),> 100 µM (inactive),> 100 µM (inactive),> 100 µM (inactive),> 100 µM (inactive),,> 100 µM (inactive),> 100 µM (inactive),> 100 µM (inactive),> 100 µM (inactive),> 100 µM (inactive),> 100 µM (inactive)
CCOc1ccc(/C(C=O)=C(\Cl)c2ccc(OC)c(OC)c2)cc1,,> 100 µM,11.4 µM (inactive),,> 100 µM (inactive),,,> 100 µM (inactive),> 100 µM (inactive),> 100 µM (inactive),,> 100 µM (inactive),79.6 µM (inactive),77.3 µM (inactive),> 100 µM (inactive),,,> 100 µM (inactive),> 100 µM (inactive),83.2 µM (inactive)
O=C(/C=N/c1ccccc1S)c1ccco1,,7.66 µM,4.17 µM (inactive),16.3 µM (inactive),,,5.32 µM (inactive),18.9 µM (inactive),4.01 µM (inactive),17.1 µM (inactive),13.4 µM (inactive),11.5 µM (inactive),5.08 µM (inactive),17.3 µM (inactive),,,17.7 µM (inactive),,10.7 µM (inactive),14.1 µM (inactive)
COc1cc(/C=C/C(=O)Oc2ccc(NC(C)=O)cc2)ccc1C(=O)O/C=C/c1ccccc1,> 100 µM (inactive),> 100 µM,> 100 µM (inactive),> 100 µM (inactive),,> 100 µM (inactive),66.8 µM (inactive),> 100 µM (inactive),> 100 µM (inactive),> 100 µM (inactive),> 100 µM (inactive),> 100 µM (inactive),> 100 µM (inactive),> 100 µM (inactive),> 100 µM (inactive),,> 100 µM (inactive),,> 100 µM (inactive),> 100 µM (inactive)
CCOC(=O)NC(Nc1ncccn1)(C(=O)OCC)C(F)(F)F (stereo unspecified),> 100 µM (inactive),> 100 µM,> 100 µM (inactive),> 100 µM (inactive),> 100 µM (inactive),> 100 µM (inactive),> 100 µM (inactive),,> 100 µM (inactive),> 100 µM (inactive),> 100 µM (inactive),> 100 µM (inactive),> 100 µM (inactive),> 100 µM (inactive),> 10 µM (inactive),> 100 µM (inactive),> 100 µM (inactive),> 100 µM (inactive),> 100 µM (inactive),> 100 µM (inactive)
O=c1[nH]c(-c2ccc(Cl)cc2)cc2ccsc12,2.31 µM (inactive),2.26 µM,2.94 µM (inactive),3.21 µM (inactive),3.48 µM (inactive),5.05 µM (inactive),3.78 µM (inactive),1.2 µM (inactive),4.92 µM (inactive),1.66 µM (inactive),23.3 µM (inactive),8.41 µM (inactive),3.42 µM (inactive),4.41 µM (inactive),4.9 µM (inactive),0.506 µM (active),0.662 µM (active),6.03 µM (inactive),8.38 µM (inactive),
COc1ccc(C[C@H](N)C(=O)N2C[C@H](CO)C[C@H](n3ccc(=O)[nH]c3=O)C2)cc1,> 100 µM (inactive),> 100 µM,58.3 µM (inactive),> 100 µM (inactive),> 100 µM (inactive),,> 100 µM (inactive),> 100 µM (inactive),> 100 µM (inactive),> 100 µM (inactive),> 100 µM (inactive),> 100 µM (inactive),,> 100 µM (inactive),> 100 µM (inactive),> 100 µM (inactive),,> 100 µM (inactive),> 100 µM (inactive),> 100 µM (inactive)
COC(=O)C1C(C)N1C (stereo unspecified),> 100 µM (inactive),> 100 µM,> 100 µM (inactive),> 100 µM (inactive),> 100 µM (inactive),,> 100 µM (inactive),,> 100 µM (inactive),> 100 µM (inactive),> 100 µM (inactive),> 100 µM (inactive),,> 100 µM (inactive),> 100 µM (inactive),,> 100 µM (inactive),,> 100 µM (inactive),> 100 µM (inactive)
O=C1Sc2sc(=S)sc2SC1c1ccccc1 (stereo unspecified),> 89.7 µM (inactive),19.4 µM,20 µM (inactive),> 80.9 µM (inactive),,67.9 µM (inactive),31.6 µM (inactive),> 49.3 µM (inactive),82.6 µM (inactive),29.8 µM (inactive),18.3 µM (inactive),59 µM (inactive),> 81.1 µM (inactive),> 100 µM (inactive),> 100 µM (inactive),,> 74.3 µM (inactive),,> 100 µM (inactive),74 µM (inactive)
O=C1c2ccccc2C(=O)N1CC(O)COc1cccc2ccccc12 (stereo unspecified),> 100 µM (inactive),> 100 µM,> 100 µM (inactive),,> 100 µM (inactive),> 100 µM (inactive),> 100 µM (inactive),61.8 µM (inactive),,> 100 µM (inactive),,> 100 µM (inactive),98.2 µM (inactive),63.5 µM (inactive),> 100 µM (inactive),> 100 µM (inactive),> 100 µM (inactive),76.4 µM (inactive),> 100 µM (inactive),
Clc1ccc(C[P+](c2ccccc2)(c2ccccc2)c2ccccc2)c(Cl)c1,3.47 µM (inactive),24 µM,0.8 µM (active),1.69 µM (inactive),3.18 µM (inactive),,3.3 µM (inactive),3.87 µM (inactive),2.89 µM (inactive),2.58 µM (inactive),4.04 µM (inactive),2.75 µM (inactive),3.08 µM (inactive),1.38 µM (inactive),3.75 µM (inactive),1.89 µM (inactive),1.04 µM (active),10 µM (inactive),3.44 µM (inactive),3.06 µM (inactive)
NC(=O)/C(=N\NC(=O)c1cc2ccccc2cc1O)C1C(=O)N(c2ccccc2)N=C1N (stereo unspecified),37.9 µM (inactive),,6 µM (inactive),35.6 µM (inactive),31.5 µM (inactive),,21.4 µM (inactive),58.7 µM (inactive),20.3 µM (inactive),28 µM (inactive),22.6 µM (inactive),26.3 µM (inactive),33 µM (inactive),18.4 µM (inactive),,,23.4 µM (inactive),29.9 µM (inactive),32.2 µM (inactive),
Nc1cc(N2CCOCC2)nc(=O)n1-c1ccccc1,> 100 µM (inactive),> 100 µM,21.4 µM (inactive),> 100 µM (inactive),> 100 µM (inactive),> 100 µM (inactive),> 100 µM (inactive),,> 100 µM (inactive),> 100 µM (inactive),,> 100 µM (inactive),> 100 µM (inactive),> 100 µM (inactive),> 100 µM (inactive),> 100 µM (inactive),> 100 µM (inactive),> 100 µM (inactive),> 100 µM (inactive),> 100 µM (inactive)
CC(=O)OC1CCC2(C)C(CCC3C2CCC2(C)C(c4ccc(=O)oc4)C(OC(C)=O)CC32O)C1 (stereo unspecified),0.0269 µM (active),0.0136 µM,0.0154 µM (active),0.0172 µM (active),,0.0164 µM (active),0.0163 µM (active),0.0125 µM (active),0.0154 µM (active),0.0161 µM (active),0.0125 µM (active),0.0171 µM (active),0.016 µM (active),0.0164 µM (active),0.0292 µM (active),,0.023 µM (active),,0.0168 µM (active),0.0125 µM (active)
OC[C@H]1O[C@@H](n2cnc3cncnc32)[C@H](O)[C@@H]1O [NEBULARINE],0.989 µM (active),0.692 µM,0.326 µM (active),1.01 µM (active),,0.307 µM (active),1.26 µM (inactive),2.03 µM (inactive),1.75 µM (inactive),1.65 µM (inactive),1.12 µM (inactive),1.17 µM (inactive),2 µM (inactive),1.67 µM (inactive),0.953 µM (active),,1.61 µM (inactive),,0.605 µM (active),1.43 µM (inactive)
